# From US9012611B2, “Use of 3,8,12,14, 17,20-oxo-substituted pregnene glycosides in the preparation of healthcare products, food additives and pharmaceuticals for the inhibition of appetite” (Institute of Materia Medica, Chinese Academy of Sciences, priority 2010, dated 2015)
# Experiments:
# [1] = Animal test in vivo: average body weight; set-up: species or system rat; settings: for Average body weight: positive control 15 mg/kg; for body weight compared with the blank control group (in words): during the administration of the drugs, pure glycosides 50 mg/kg
# Procedure: (§1) 6-7 weeks-old female Wistar rat (purchased from Shanghai Laboratory Animal Center of Chinese Academy of Sciences)(weight: 110-150 g) was raised alone in suspended metal cage. After the experimental rat was obtained, it was checked to make sure whether they were abnormal or had obvious disease signs. The rat can freely obtain the drinking-water and feed for rodent (RM1(E)AQC). The feeding cage was controlled to receive 12 h illumination (from 07:00 to 19:00) and to be in a dark environment for 12 h, and the room temperature and relative humidity were controlled to be 21±3° C. and 55±15% respectively and not to deviate the upper and lower limit. The rats were randomly divided into groups depending on the body weight according to random number table to make the average weight in each group are approximately equal. Before the test, the rats were pre-trained suitably for one week (from −7th day to −1st day) during which the consumptions of feed and drinking water were recorded.
# (§2) Each group of drug to be tested, positive control group, and blank control group consisted of 5 rats, respectively. The tested drug and positive control drug were mixed with wheaten starch before the administration and formulated to suspension with required doses according to 10 mL/kg of administration volume. The positive control drug was sibutramine hydrochloride and the administration dosage was 15 mg/kg body weight. In the blank control group, only equal amount of starch was used to formulate suspension for administration by […] in a same volume. The administration time is the 1st day, 2nd day and 3rd day. The body weight of the rat, the consumption of the feed (the weight of the feeding hopper) and consumption of the drinking water (bottle weight) were recorded from the −7th day to the 7th day.
# female Wistar rat = test: Animal test in vivo: average food consumption (appetite inhibition); settings: for Average food consumptions: positive control 15 mg/kg; for average food consumptions compared with the blank control group (in words): during the administration of the drugs, pure glycosides 50 mg/kg
# Procedure: as §1, §2
structure (smiles),measurement,setting,value
"CO[C@H]1C[C@H](O[C@H]2[C@@H](OC)C[C@H](O[C@H]3CC[C@@]4(C)C(=CC[C@]5(O)[C@@H]4C[C@@H](OC(=O)/C=C/c4ccccc4)[C@@]4(C)[C@]5(O)CC[C@@]4(O)C(C)=O)C3)O[C@@H]2C)O[C@@H](C)[C@H]1O[C@H]1C[C@H](OC)[C@H](O[C@H]2C[C@@H](OC)[C@@H](O)[C@H](C)O2)[C@@H](C)O1 [Wilfoside K1N, wilfoside K1N]",Average body weight,"[1]; 1st day (administration day), Table 6, wilfosides 50 mg/kg",136.4 g
same,Average body weight,"[1]; 2nd day (administration day), Table 6, wilfosides 50 mg/kg",134.4 g
same,Average body weight,"[1]; 3rd day (administration day), Table 6, wilfosides 50 mg/kg",130.4 g
same,Average body weight,"[1]; 4th day (after administration on days 1-3), Table 6, wilfosides 50 mg/kg",134.2 g
same,Average body weight,"[1]; 5th day (after administration on days 1-3), Table 6, wilfosides 50 mg/kg",136.8 g
same,Average body weight,"[1]; 6th day (after administration on days 1-3), Table 6, wilfosides 50 mg/kg",139.2 g
same,Average body weight,"[1]; 7th day (after administration on days 1-3), Table 6, wilfosides 50 mg/kg",144 g
same,body weight compared with the blank control group (in words),[1]; crude extract 300 mg/kg,greatly different from those in the blank group
same,Average body weight,"[1]; −1st day (before administration), Table 6, wilfosides 50 mg/kg",148.8 g
same,Average body weight,"[1]; −2nd day (before administration), Table 6, wilfosides 50 mg/kg",146.4 g
same,Average body weight,"[1]; −3rd day (before administration), Table 6, wilfosides 50 mg/kg",143.6 g
same,Average body weight,"[1]; −4th day (before administration), Table 6, wilfosides 50 mg/kg",141.6 g
same,Average body weight,"[1]; −5th day (before administration), Table 6, wilfosides 50 mg/kg",140 g
same,Average body weight,"[1]; −6th day (before administration), Table 6, wilfosides 50 mg/kg",137.6 g
same,Average body weight,"[1]; −7th day (before administration), Table 6, wilfosides 50 mg/kg",134.8 g
same,Average food consumptions,"female Wistar rat; 1st day (administration day), Table 4, wilfosides 50 mg/kg",2.8 g
same,Average food consumptions,"female Wistar rat; 2nd day (administration day), Table 4, wilfosides 50 mg/kg",6.4 g
same,Average food consumptions,"female Wistar rat; 3rd day (administration day), Table 4, wilfosides 50 mg/kg",2.8 g
same,Average food consumptions,"female Wistar rat; 4th day (after administration on days 1-3), Table 4, wilfosides 50 mg/kg",8.4 g
same,Average food consumptions,"female Wistar rat; 5th day (after administration on days 1-3), Table 4, wilfosides 50 mg/kg",9.2 g
same,Average food consumptions,"female Wistar rat; 6th day (after administration on days 1-3), Table 4, wilfosides 50 mg/kg",13.6 g
same,Average food consumptions,"female Wistar rat; 7th day (after administration on days 1-3), Table 4, wilfosides 50 mg/kg",14.8 g
same,average food consumptions compared with the blank control group (in words),female Wistar rat; crude extract 300 mg/kg,greatly different from those in the blank group
same,Average food consumptions,"female Wistar rat; −1st day (before administration), Table 4, wilfosides 50 mg/kg",13.2 g
same,Average food consumptions,"female Wistar rat; −2nd day (before administration), Table 4, wilfosides 50 mg/kg",13.6 g
same,Average food consumptions,"female Wistar rat; −3rd day (before administration), Table 4, wilfosides 50 mg/kg",13.2 g
same,Average food consumptions,"female Wistar rat; −4th day (before administration), Table 4, wilfosides 50 mg/kg",14.4 g
same,Average food consumptions,"female Wistar rat; −5th day (before administration), Table 4, wilfosides 50 mg/kg",14.8 g
same,Average food consumptions,"female Wistar rat; −6th day (before administration), Table 4, wilfosides 50 mg/kg",10.8 g
same,Average food consumptions,"female Wistar rat; −7th day (before administration), Table 4, wilfosides 50 mg/kg",7.6 g
"CO[C@H]1C[C@H](O[C@H]2[C@@H](OC)C[C@H](O[C@H]3CC[C@@]4(C)C(=CC[C@]5(O)[C@@H]4C[C@@H](OC(=O)/C=C/c4ccccc4)[C@@]4(C)[C@]5(O)CC[C@@]4(O)C(C)=O)C3)O[C@@H]2C)O[C@@H](C)[C@H]1O[C@H]1C[C@H](OC)[C@H](O[C@H]2C[C@@H](OC)[C@@H](O[C@@H]3O[C@H](CO)[C@@H](O)[C@H](O)[C@H]3O)[C@H](C)O2)[C@@H](C)O1 [Cynauricuoside A, cynauricuoside A]",Average body weight,"[1]; 1st day (administration day), Table 3, crude extract 300 mg/kg, others 50 mg/kg",158.8 g
same,Average body weight,"[1]; 2nd day (administration day), Table 3, crude extract 300 mg/kg, others 50 mg/kg",156.4 g
same,Average body weight,"[1]; 3rd day (administration day), Table 3, crude extract 300 mg/kg, others 50 mg/kg",153.6 g
same,Average body weight,"[1]; 4th day (after administration on days 1-3), Table 3, crude extract 300 mg/kg, others 50 mg/kg",156.8 g
same,Average body weight,"[1]; 5th day (after administration on days 1-3), Table 3, crude extract 300 mg/kg, others 50 mg/kg",158.4 g
same,Average body weight,"[1]; 6th day (after administration on days 1-3), Table 3, crude extract 300 mg/kg, others 50 mg/kg",164.4 g
same,Average body weight,"[1]; 7th day (after administration on days 1-3), Table 3, crude extract 300 mg/kg, others 50 mg/kg",166.8 g
same,body weight compared with the blank control group (in words),[1]; crude extract 300 mg/kg,the tendency of body weight change was greatly different
same,Average body weight,"[1]; −1st day (before administration), Table 3, crude extract 300 mg/kg, others 50 mg/kg",163.6 g
same,Average body weight,"[1]; −2nd day (before administration), Table 3, crude extract 300 mg/kg, others 50 mg/kg",160.4 g
same,Average body weight,"[1]; −3rd day (before administration), Table 3, crude extract 300 mg/kg, others 50 mg/kg",158 g
same,Average body weight,"[1]; −4th day (before administration), Table 3, crude extract 300 mg/kg, others 50 mg/kg",156 g
same,Average body weight,"[1]; −5th day (before administration), Table 3, crude extract 300 mg/kg, others 50 mg/kg",154.4 g
same,Average body weight,"[1]; −6th day (before administration), Table 3, crude extract 300 mg/kg, others 50 mg/kg",152.8 g
same,Average body weight,"[1]; −7th day (before administration), Table 3, crude extract 300 mg/kg, others 50 mg/kg",150 g
same,Average food consumptions,"female Wistar rat; 1st day (administration day), Table 1, crude extract 300 mg/kg, others 50 mg/kg",9.2 g
same,Average food consumptions,"female Wistar rat; 2nd day (administration day), Table 1, crude extract 300 mg/kg, others 50 mg/kg",10.8 g
same,Average food consumptions,"female Wistar rat; 3rd day (administration day), Table 1, crude extract 300 mg/kg, others 50 mg/kg",9.2 g
same,Average food consumptions,"female Wistar rat; 4th day (after administration on days 1-3), Table 1, crude extract 300 mg/kg, others 50 mg/kg",15.2 g
same,Average food consumptions,"female Wistar rat; 5th day (after administration on days 1-3), Table 1, crude extract 300 mg/kg, others 50 mg/kg",13.6 g
same,Average food consumptions,"female Wistar rat; 6th day (after administration on days 1-3), Table 1, crude extract 300 mg/kg, others 50 mg/kg",13.2 g
same,Average food consumptions,"female Wistar rat; 7th day (after administration on days 1-3), Table 1, crude extract 300 mg/kg, others 50 mg/kg",13.6 g
same,average food consumptions compared with the blank control group (in words),female Wistar rat; crude extract 300 mg/kg,greatly less than those in the blank control group
same,Average food consumptions,"female Wistar rat; −1st day (before administration), Table 1, crude extract 300 mg/kg, others 50 mg/kg",12.4 g
same,Average food consumptions,"female Wistar rat; −2nd day (before administration), Table 1, crude extract 300 mg/kg, others 50 mg/kg",14.4 g
same,Average food consumptions,"female Wistar rat; −3rd day (before administration), Table 1, crude extract 300 mg/kg, others 50 mg/kg",13.6 g
same,Average food consumptions,"female Wistar rat; −4th day (before administration), Table 1, crude extract 300 mg/kg, others 50 mg/kg",14 g
same,Average food consumptions,"female Wistar rat; −5th day (before administration), Table 1, crude extract 300 mg/kg, others 50 mg/kg",13.6 g
same,Average food consumptions,"female Wistar rat; −6th day (before administration), Table 1, crude extract 300 mg/kg, others 50 mg/kg",11.2 g
same,Average food consumptions,"female Wistar rat; −7th day (before administration), Table 1, crude extract 300 mg/kg, others 50 mg/kg",14 g
